# Reference: patent US20200397894A1, “COMPOSITIONS AND METHODS FOR TREATING CANCER” (University of Virginia Patent Foundation, priority 2016, published 2020)
# Key:
# Format in all cases: cell-based, human
# Cal27 cells [1] = assay: Clonogenic survival assay for radiation sensitivity; design: SF4: unit not given here; details: for SF4: S 0.1; for SER (sensitivity enhancement ratio): at 10% survival
# Method: The effect of pevonedistat treatment or transient silencing of CDT2, geminin, or EMI1 on cell proliferation or on radiation sensitivity was tested using clonogenic survival assays. Cells were transfected with the appropriate si-RNA 48 hours prior to seeding. Cells were then counted using COUNTESS™ Automated Cell Counter (INVITROGEN™, Carlsbad, Calif., United States of America) and were seeded at 15,000 cells/plate in 60 mm dishes. Cells were irradiated 24 hours after seeding with various doses and were cultured for 7-10 days. Once colonies reached the appropriate size (>50 cells each), cells were washed twice with cold PBS, fixed in cold 100% methanol for 10 minutes, and stained with crystal violet (0.5%) for 10 minutes. The plates were washed, dried, and imaged using IMAGE LAB™ software (BioRad Laboratories, Inc., Hercules, Calif., United States of America). QUANTITY ONE® software (BioRad Laboratories, Inc., Hercules, Calif., United States of America) was used to quantify the number of colonies and survival curves were established based on the linear quadratic model, using the formula S=e^−αD-βD2; where S represents the surviving fraction and D the dose of irradiation. Results are represented as mean standard deviation (SD) of three independent experiments normalized to the corresponding non-irradiated plates for each group. When the effect of pevonedistat on cell radiosensitivity was tested, cells were seeded at 15,000 cells/60 mm plate and allowed to adhere for 4-6 hours. Pevonedistat was then added upon cell adherence at varying concentrations and cells were irradiated the following day. The duration of the experiment and the stopping procedure were as described above.
# Cal27 cells [2] = assay: Rereplication by propidium iodide staining and FACS (HNSCC)
# Method: The effect of pevonedistat treatment or CDT2, geminin, or EMI1 knockdown on the cell cycle (and induction of DNA rereplication) was assessed by flow cytometry with propidium iodide (PI) staining. […] Cells were collected, washed with PBS, and resuspended in ethanol (75%). Cells were subsequently treated with 20 μg of DNase-free RNase and stained with PI following the manufacturer's protocol. FACSCAN™ (Becton, Dickinson and Company, Franklin Lakes, N.J., United States of America) was used to analyze the samples and G0-G1, S, and G2-M fractions were segmented. Subsequent analysis using FLOWJO® (FLOWJO, LLC, Ashland, Oreg., United States of America) and ModFit (Verity Software House, Topsham, Me., United States of America) software was used to determine apoptotic and re-replicating fractions. Where indicated, Cal27 and FaDu cells were treated with pevonedistat for 48 hours and pulsed with BrdU (10 nM) for 1 hour in the dark prior to harvesting. Cells were washed with PBS and staining solution before fixation and permeabilization steps according to the manufacturer's protocol. Cells were subsequently stained with anti-BrdU antibody solution for 20 minutes at room temperature, washed, and stained with 7-AAD for 30 minutes at 4° C. Cells were resuspended in 1 ml of staining buffer and stored at 4° C. overnight before analysis. Sampled were analyzed on a FACSCAN™ (Becton, Dickinson and Company, Franklin Lakes, N.J., United States of America), and different fractions of BrdU positive cells were determined using FLOWJO® (FLOWJO, LLC, Ashland, Oreg., United States of America) and ModFit (Verity Software House, Topsham, Me., United States of America) software.
# VMM39 cells = assay: Rereplication by propidium iodide staining and FACS; details: VMM39, 1 μM pevonedistat
# Method: (§1) The effects of pevonedistat, vemurafenib, and/or silencing of various cell cycle-associated proteins by siRNA on cell cycle distribution and rereplication were assessed by propidium iodide staining and flow cytometry of asynchronous melanoma cultures. Synchronization of cells was not employed to avoid bias and to be able to measure the impact of these perturbations on proliferating cancer cells. Briefly, asynchronous melanoma cell lines were treated with pevonedistat or vemurafenib, or transfected with si-CDT1, si-CDT2, si-SET8, si-p21, sigeminin, si-EMI1, or si-GL2 for a time ranging from 24 to 96 hours. Cells were washed with cold PBS, harvested, and fixed in 70% (v/v) ethanol. Cells were subsequently treated with 20 μg of DNase-free RNase and stained with propidium iodide according to instructions of the manufacturer. Samples were analyzed on a FACSCAN™ (Becton, Dickinson and Company, Franklin Lakes, N.J., United States of America) and G0-G1, S, and G2-M fractions were segmented, and apoptotic (sub-G1 DNA content) and rereplicating (>G2/M DNA content) fractions were determined using FLOWJO® (FLOWJO, LLC, Ashland, Oreg., United States of America) and ModFit (Verity Software House, Topsham, Me., United States of America) software.
# VMM18 cells = assay: as above; details: VMM18, 1 μM pevonedistat
# Method: as §1
# SLM2 melanoma cells = assay: as above
# Method: as §1
# DM331 cells = assay: as above; details: DM331, 1 μM pevonedistat
# Method: as §1
# DM13 cells = assay: as above
# Method: as §1
# SK-MEL-28 cells = assay: as above; details: SK-MEL-28, 1 μM pevonedistat
# Method: as §1
# VMM1 cells = assay: as above
# Method: as §1
# [3] = Cal27, 20 nM pevonedistat 24 hours prior to irradiation
# [4] = Cal27, 40 nM pevonedistat 24 hours prior to irradiation
# [5] = Cal27, 60 nM pevonedistat 24 hours prior to irradiation
# [6] = Cal27, 80 nM pevonedistat 24 hours prior to irradiation
smiles,measurement,setting,value
"NS(=O)(=O)OCC1CC(n2ccc3c(NC4CCc5ccccc54)ncnc32)CC1O [pevonedistat, ((1S,2S,4R)-4-(4-((1S)-2,3-Dihydro-H-inden-1-ylamino)-7H-pyrrolo(2,3-d)pyrimidin-7-yl)-2-hydroxycyclopentyl)methyl sulphamate]",α (linear quadratic model),Cal27 cells [1]; [3],1.50 × 10^−13
same,β (linear quadratic model),Cal27 cells [1]; [3],0.049
same,SF4,"Cal27 cells [1]; Cal27, 20 nM pevonedistat",6.893
same,SER (sensitivity enhancement ratio),"Cal27 cells [1]; Cal27, 20 nM pevonedistat",1.171
same,α (linear quadratic model),Cal27 cells [1]; [4],0.108
same,β (linear quadratic model),Cal27 cells [1]; [4],0.052
same,SF4,"Cal27 cells [1]; Cal27, 40 nM pevonedistat",5.692
same,SER (sensitivity enhancement ratio),"Cal27 cells [1]; Cal27, 40 nM pevonedistat",1.419
same,α (linear quadratic model),Cal27 cells [1]; [5],0.471
same,β (linear quadratic model),Cal27 cells [1]; [5],0.009
same,SF4,"Cal27 cells [1]; Cal27, 60 nM pevonedistat",4.457
same,SER (sensitivity enhancement ratio),"Cal27 cells [1]; Cal27, 60 nM pevonedistat",1.812
same,α (linear quadratic model),Cal27 cells [1]; [6],0.906
same,β (linear quadratic model),Cal27 cells [1]; [6],−0.020
same,SF4,"Cal27 cells [1]; Cal27, 80 nM pevonedistat",2.702
same,SER (sensitivity enhancement ratio),"Cal27 cells [1]; Cal27, 80 nM pevonedistat",2.702
same,cells undergoing rereplication,"Cal27 cells [2]; Cal27, 40 nM pevonedistat 48 hours plus 2 Gy at the 24 hour time point",32.9%
same,cells undergoing rereplication,"Cal27 cells [2]; Cal27, 40 nM pevonedistat for 48 hours",16.8%
same,cells exhibiting >4N DNA content,"Cal27 cells [2]; Cal27, 100 nM pevonedistat, PI staining",61%
same,Percent of Cells in S and G2/M at 24 hours,VMM39 cells; 24 hours,37.9%
same,Percent of Cells in S and G2/M at 72 Hours,VMM39 cells; 72 hours,33.8%
same,Percent of Cells in S and G2/M at 24 hours,VMM18 cells; 24 hours,7.83%
same,Percent of Cells in S and G2/M at 72 Hours,VMM18 cells; 72 hours,16.9%
same,Percent of Cells in S and G2/M at 24 hours,"SLM2 melanoma cells; SLM2, 1 μM pevonedistat, 24 hours",46.8%
same,Percent of Cells in S and G2/M at 72 Hours,"SLM2 melanoma cells; SLM2, 1 μM pevonedistat, 72 hours",50.2%
same,cells with rereplication,"SLM2 melanoma cells; SLM2, 72 hours post-treatment",more than 58%
same,Percent of Cells in S and G2/M at 24 hours,DM331 cells; 24 hours,47.8%
same,Percent of Cells in S and G2/M at 72 Hours,DM331 cells; 72 hours,63.2%
same,Percent of Cells in S and G2/M at 24 hours,"DM13 cells; DM13, 1 μM pevonedistat, 24 hours",10.4%
same,Percent of Cells in S and G2/M at 72 Hours,"DM13 cells; DM13, 1 μM pevonedistat, 72 hours",13.7%
same,cells undergoing rereplication,"DM13 cells; DM13, 72 hours post-treatment",13.7%
same,Percent of Cells in S and G2/M at 24 hours,SK-MEL-28 cells; 24 hours,38.7%
same,Percent of Cells in S and G2/M at 72 Hours,SK-MEL-28 cells; 72 hours,55.9%
same,Percent of Cells in S and G2/M at 24 hours,"VMM1 cells; VMM1, 1 μM pevonedistat, 24 hours",7.72%
same,Percent of Cells in S and G2/M at 72 Hours,"VMM1 cells; VMM1, 1 μM pevonedistat, 72 hours",30.8%
same,cells undergoing rereplication,"VMM1 cells; VMM1, 72 hours post-treatment",25%
